Test system: HCV 1b_Huh-Luc/Neo-ET cell line persistently expressing a bicistronic genotype 1b replicon in Huh 7 cells
Assay: HCV replicon assay, luciferase enzyme activity readout
Type: cell-based
Conditions: Hepatitis C virus, 72 h incubation, average EC50 range, read-out: Inhibition of HCV genotype 1b
Procedure: Biological activity of the compounds of the invention was determined using an HCV replicon assay. The HCV 1b_Huh-Luc/Neo-ET cell line persistently expressing a bicistronic genotype 1b replicon in Huh 7 cells was obtained from ReBLikon GMBH. This cell line was used to test compound inhibition using luciferase enzyme activity readout as a measurement of compound inhibition of replicon levels.
On Day 1 (the day after plating cells), each compound is added in triplicate to the cells. Plates are incubated for 72 h prior to determining luciferase levels. Enzyme activity was measured using a Bright-Glo Kit (cat. number E2620) manufactured by Promega Corporation. The following equation was used to generate a percent control value for each compound. % Control=(Compound Luciferase Level/Control Luciferase Level)*100
The EC50 value was determined using GraphPad Prism and the following equation: Y=Bottom asymptote+(Top asymptote−Bottom asymptote)/(1+10^((Log EC50−X)*HillSlope))
EC50 values of compounds are determined several times in the replicon assay to generate average EC50 values. […]

For `COC(=O)N[C@H](C(=O)N1CCC[C@H]1c1ncc(-c2ccc3nc4cc(-c5cnc([C@@H]6CCCN6C(=O)[C@@H](NC(=O)OC)C(C)C)[nH]5)ccc4nc3c2)[nH]1)C(C)C` [Compound 1], the EC50 was < 1 nM.

With `COC(=O)N[C@@H](C(=O)N1CCC[C@H]1c1ncc(-c2ccc3nc4cc(-c5cnc([C@@H]6CCCN6C(=O)[C@H](NC(=O)OC)c6ccccc6)[nH]5)ccc4nc3c2)[nH]1)c1ccccc1` [Compound 2] the EC50 was < 1 nM.

In the case of `COC(=O)N[C@H](C(=O)N1CCC[C@H]1c1ncc(-c2ccc3c(c2)Oc2ccc(-c4cnc([C@@H]5CCCN5C(=O)[C@@H](NC(=O)OC)C(C)C)[nH]4)cc2O3)[nH]1)C(C)C` [Compound 3], the EC50 is reported as < 1 nM.

Compound `COC(=O)N[C@H](C(=O)N1CCC[C@H]1c1ncc(-c2ccc3c(c2)Cc2cc(-c4cnc([C@@H]5CCCN5C(=O)[C@@H](NC(=O)OC)C(C)C)[nH]4)ccc2O3)[nH]1)C(C)C` [Compound 4] has an EC50 of 10 to 999 nM.

For `COC(=O)N[C@@H](C(=O)N1CCC[C@H]1c1ncc(-c2ccc3c(c2)Cc2cc(-c4cnc([C@@H]5CCCN5C(=O)[C@H](NC(=O)OC)c5ccccc5)[nH]4)ccc2O3)[nH]1)c1ccccc1` [Compound 5], the EC50 was < 1 nM.

`COC(=O)N[C@H](C(=O)N1CCC[C@H]1c1ncc(-c2ccc3c(c2)Cc2ccc(-c4cnc([C@@H]5CCCN5C(=O)[C@@H](NC(=O)OC)C(C)C)[nH]4)cc2O3)[nH]1)C(C)C` [Compound 6] was tested, and the EC50 was < 1 nM.

With `COC(=O)N[C@H](C(=O)N1CCC[C@H]1c1ncc(-c2ccc3c(c2)CCc2cc(-c4cnc([C@@H]5CCCN5C(=O)[C@@H](NC(=O)OC)C(C)C)[nH]4)ccc2O3)[nH]1)C(C)C` [Compound 7] the EC50 was < 1 nM.

In the case of `COC(=O)N[C@H](C(=O)N1CCC[C@H]1c1ncc(-c2ccc3c(=O)c4cc(-c5cnc([C@@H]6CCCN6C(=O)[C@@H](NC(=O)OC)C(C)C)[nH]5)ccc4oc3c2)[nH]1)C(C)C` [Compound 8], the EC50 is reported as < 1 nM.

Work on `CC(C)(C)OC(=O)N1CCC[C@H]1c1ncc(-c2ccc3c(=O)c4cc(-c5cnc([C@@H]6CCCN6C(=O)OC(C)(C)C)[nH]5)ccc4oc3c2)[nH]1` [Compound 9] yielded an EC50 of 10 to 999 nM.

`COC(=O)N[C@H](C(=O)N1CCC[C@H]1c1ncc(-c2ccc3c(c2)Oc2ccc(-c4cnc([C@@H]5CCCN5C(=O)[C@@H](NC(=O)OC)C(C)C)[nH]4)cc2C3(C)C)[nH]1)C(C)C` [Compound 10] was tested, and the EC50 was < 1 nM.

For `COC(=O)N[C@H](C(=O)N1CCC[C@H]1c1ncc(-c2ccc3c(c2)c(=O)c2ccc(-c4cnc([C@@H]5CCCN5C(=O)[C@@H](NC(=O)OC)C(C)C)[nH]4)cc2n3C)[nH]1)C(C)C` [Compound 11], the EC50 was < 1 nM.

In the case of `COC(=O)N[C@H](C(=O)N1CCC[C@H]1c1ncc(-c2ccc3c(c2)CCc2ccc(-c4cnc([C@@H]5CCCN5C(=O)[C@@H](NC(=O)OC)C(C)C)[nH]4)cc2O3)[nH]1)C(C)C` [Compound 12], the EC50 is reported as < 1 nM.

In the case of `COC(=O)N[C@H](C(=O)N1CCC[C@H]1c1ncc(-c2ccc3c(c2)CN(C)c2ccc(-c4cnc([C@@H]5CCCN5C(=O)[C@@H](NC(=O)OC)C(C)C)[nH]4)cc2CN3C)[nH]1)C(C)C` [Compound 13], the EC50 is reported as < 1 nM.

`COC(=O)N[C@H](C(=O)N1CCC[C@H]1c1ncc(-c2ccc3c(c2)Oc2ccc(-c4cnc([C@@H]5CCCN5C(=O)[C@@H](NC(=O)OC)C(C)C)[nH]4)cc2C(=O)N3)[nH]1)C(C)C` [Compound 14] gave an EC50 of 10 to 999 nM.

`COC(=O)N[C@H](C(=O)N1CCC[C@H]1c1ncc(-c2ccc3c(=O)c4cc(-c5cnc([C@@H]6CCCN6C(=O)[C@H](NC(=O)OC)c6ccccc6)[nH]5)ccc4oc3c2)[nH]1)C(C)C` [Compound 15] was tested, and the EC50 was < 1 nM.

With `COC(=O)N[C@H](C(=O)N1CCC[C@H]1c1ncc(-c2ccc3c(=O)c4cc(-c5cnc([C@@H]6CCCN6C(=O)[C@@H](NC(=O)OC)C6CCOCC6)[nH]5)ccc4oc3c2)[nH]1)C(C)C` [Compound 16] the EC50 was < 1 nM.

`COC(=O)N[C@H](C(=O)N1CCC[C@H]1c1ncc(-c2ccc3oc4cc(-c5cnc([C@@H]6CCCN6C(=O)[C@@H](NC(=O)OC)C6CCOCC6)[nH]5)ccc4c(=O)c3c2)[nH]1)C(C)C` [Compound 17] was tested, and the EC50 was < 1 nM.

With `COC(=O)N[C@H](C(=O)N1CCC[C@H]1c1ncc(-c2ccc3oc4cc(-c5cnc([C@@H]6CCCN6C(=O)[C@H](NC(=O)OC)c6ccccc6)[nH]5)ccc4c(=O)c3c2)[nH]1)C(C)C` [Compound 18] the EC50 was < 1 nM.

For `COC(=O)N[C@H](C(=O)N1CCC[C@H]1c1ncc(-c2ccc3c(=O)c4cc(-c5cnc([C@@H]6CCCN6C(=O)[C@H](NC(=O)OC6CCOCC6)c6ccccc6)[nH]5)ccc4oc3c2)[nH]1)C(C)C` [Compound 19], the EC50 was < 1 nM.

For `COC(=O)N[C@@H](C)C(=O)N1CCC[C@H]1c1ncc(-c2ccc3oc4cc(-c5cnc([C@@H]6CCCN6C(=O)[C@@H](NC(=O)OC)C(C)C)[nH]5)ccc4c(=O)c3c2)[nH]1` [Compound 20], the EC50 was < 1 nM.

In the case of `COC(=O)N[C@H](C(=O)N1CCC[C@H]1c1ncc(-c2ccc3oc4cc(-c5cnc([C@@H]6CCCN6C(=O)[C@H](NC(=O)OC6CCOCC6)c6ccccc6)[nH]5)ccc4c(=O)c3c2)[nH]1)C(C)C` [Compound 21], the EC50 is reported as < 1 nM.

With `COC(=O)N[C@H](C(=O)N1CCC[C@H]1c1ncc(-c2ccc3oc4cc(-c5cnc([C@@H]6CCCN6C(=O)[C@@H](NC(=O)OC)C(C)C)[nH]5)c(F)cc4c(=O)c3c2)[nH]1)C(C)C` [Compound 22] the EC50 was < 1 nM.

With `COC(=O)N[C@H](C(=O)N1CCC[C@H]1c1ncc(-c2ccc3oc4cc(-c5cnc([C@@H]6CCCN6C(=O)[C@@H](NC(=O)OC)C6CCOCC6)[nH]5)c(F)cc4c(=O)c3c2)[nH]1)C1CCOCC1` [Compound 23] the EC50 was < 1 nM.

In the case of `COC(=O)N[C@@H](C(=O)N1CCC[C@H]1c1ncc(-c2ccc3oc4cc(-c5cnc([C@@H]6CCCN6C(=O)[C@H](NC(=O)OC)c6ccccc6)[nH]5)c(F)cc4c(=O)c3c2)[nH]1)c1ccccc1` [Compound 24], the EC50 is reported as < 1 nM.

With `O=C(N[C@@H](C(=O)N1CCC[C@H]1c1ncc(-c2ccc3oc4cc(-c5cnc([C@@H]6CCCN6C(=O)[C@H](NC(=O)OC6CCOCC6)c6ccccc6)[nH]5)c(F)cc4c(=O)c3c2)[nH]1)c1ccccc1)OC1CCOCC1` [Compound 25] the EC50 was < 1 nM.

With `COC(=O)N[C@H](C(=O)N1CCC[C@H]1c1ncc(-c2ccc3c(c2)Oc2ccc(-c4cnc([C@@H]5CCCN5C(=O)[C@@H](NC(=O)OC)C(C)C)[nH]4)cc2C32CC2)[nH]1)C(C)C` [Compound 26] the EC50 was < 1 nM.

For `COC(=O)N[C@H](C(=O)N1CCC[C@H]1c1ncc(-c2cc3oc4ccc(-c5cnc([C@@H]6CCCN6C(=O)[C@H](NC(=O)OC)c6ccccc6)[nH]5)cc4c(=O)c3cc2F)[nH]1)C(C)C` [Compound 27], the EC50 was < 1 nM.

In the case of `COC(=O)N[C@H](C(=O)N1CCC[C@H]1c1ncc(-c2cc3oc4ccc(-c5cnc([C@@H]6CCCN6C(=O)[C@@H](NC(=O)OC)C6CCOCC6)[nH]5)cc4c(=O)c3cc2F)[nH]1)C(C)C` [Compound 28], the EC50 is reported as < 1 nM.

With `COC(=O)N[C@H](C(=O)N1CCC[C@H]1c1ncc(-c2cc3c(cc2F)Cc2cc(-c4cnc([C@@H]5CCCN5C(=O)[C@@H](NC(=O)OC)[C@@H](C)OC)[nH]4)ccc2O3)[nH]1)C(C)C` [Compound 29] the EC50 was < 1 nM.

In the case of `COC(=O)N[C@H](C(=O)N1CCC[C@H]1c1ncc(-c2ccc3c(c2)Cc2ccc(-c4cnc([C@@H]5CCCN5C(=O)[C@@H](NC(=O)OC)[C@@H](C)OC)[nH]4)cc2O3)[nH]1)[C@@H](C)OC` [Compound 30], the EC50 is reported as < 1 nM.

In the case of `CC[C@H](C)[C@H](NC(=O)OC)C(=O)N1CCC[C@H]1c1ncc(-c2ccc3c(c2)Cc2ccc(-c4cnc([C@@H]5CCCN5C(=O)[C@@H](NC(=O)OC)[C@@H](C)CC)[nH]4)cc2O3)[nH]1` [Compound 31], the EC50 is reported as < 1 nM.

For `COC(=O)N[C@H](C(=O)N1CCC[C@H]1c1ncc(-c2ccc3c(c2)Cc2ccc(-c4cnc([C@@H]5CCCN5C(=O)[C@@H](NC(=O)OC)C5CCCC5)[nH]4)cc2O3)[nH]1)C1CCCC1` [Compound 32], the EC50 was < 1 nM.

In the case of `COC(=O)N[C@H](C(=O)N1CCC[C@H]1c1ncc(-c2ccc3c(c2)Oc2ccc(-c4cnc([C@@H]5CCCN5C(=O)[C@@H](NC(=O)OC)C5CCCC5)[nH]4)cc2O3)[nH]1)C1CCCC1` [Compound 33], the EC50 is reported as < 1 nM.

For `COC(=O)N[C@H](C(=O)N1CCC[C@H]1c1ncc(-c2ccc3c(c2)Oc2ccc(-c4cnc([C@@H]5CCCN5C(=O)[C@@H](NC(=O)OC)[C@@H](C)OC)[nH]4)cc2O3)[nH]1)[C@@H](C)OC` [Compound 34], the EC50 was < 1 nM.

For `COC(=O)N[C@H](C(=O)N1CCC[C@H]1c1ncc(-c2ccc3c(c2)Oc2ccc(-c4cnc([C@@H]5CCCN5C(=O)[C@@H](NC(=O)OC)C5CCOCC5)[nH]4)cc2O3)[nH]1)C1CCOCC1` [Compound 35], the EC50 was < 1 nM.

For `COC(=O)N[C@H](C(=O)N1CSC[C@H]1c1ncc(-c2ccc3c(c2)Oc2ccc(-c4cnc([C@@H]5CSCN5C(=O)[C@@H](NC(=O)OC)C(C)C)[nH]4)cc2O3)[nH]1)C(C)C` [Compound 36], the EC50 was < 1 nM.

In the case of `COC(=O)N[C@@H](C(=O)N1CSC[C@H]1c1ncc(-c2ccc3c(c2)Oc2ccc(-c4cnc([C@@H]5CSCN5C(=O)[C@H](NC(=O)OC)c5ccccc5)[nH]4)cc2O3)[nH]1)c1ccccc1` [Compound 37], the EC50 is reported as < 1 nM.

In the case of `COC(=O)N[C@@H](C(=O)N[C@@H](C)c1ncc(-c2ccc3c(c2)Oc2ccc(-c4cnc([C@H](C)NC(=O)[C@H](NC(=O)OC)c5ccccc5)[nH]4)cc2O3)[nH]1)c1ccccc1` [Compound 38], the EC50 is reported as < 1 nM.

`COC(=O)N[C@H](C(=O)N[C@@H](C)c1ncc(-c2ccc3c(c2)Oc2ccc(-c4cnc([C@H](C)NC(=O)[C@@H](NC(=O)OC)C(C)C)[nH]4)cc2O3)[nH]1)C(C)C` [Compound 39] was tested, and the EC50 was < 1 nM.

From patent US9150554B2, “Fused ring inhibitors of hepatitis C” (Presidio Pharmaceuticals, Inc., priority 2009, dated 2015)
